For orientation: melting point means the temperature of the solid-liquid transition.

This is an account of results in patent publication US20090318424A1, “NOVEL COMPOUNDS” (priority 2006, published 2009).

“Also recorded” adds a separate entry of the source.

Data set [1] relates to influx of neutrophils to the lung in LPS-challenged rats. In words: Rat LPS neutrophilia model. Type of data set: in vivo. The conditions noted are these: LPS aerosol 100 ug/ml 15 min, lavage 4 hours later; in at least one of the range of conditions tested. As for the experimental part: The effect of compounds on the influx of neutrophils to the lung in LPS-challenged rats is evaluated as follows. The test compound is suspended in one of the following solutions: 0.5% tween 80/PBS, 0.5% tween 80/saline, 10% EtOH/saline (with pH adjusted to 2.0, or 8.0 with HCl, or unadjusted), Saline @ pH 2.0, 6.5 or 8.0, 0.5% Tragacanth, 1% DMSO/20% Encapsin/Saline, or acidified 5% Tragacanth. The suspension process may be aided by the use of a glass homogenizer. For intratracheal administration, the animals are anesthetized with inhaled isoflurane and placed in a supine position, the trachea is intubated with a steel gavage needle (1.5 inch, 22 gauge, small ball) or a Penn-Century Microsprayer Aerosolizer (model IA-IB) and 200 ul of dosing solution is delivered. The animals are visually monitored during the recovery process, which typically occurs within two minutes.
Rats treated with compound or vehicle (15 min-24 hours pretreatment) are exposed to an LPS aerosol (100 ug/ml) for 15 min. Four hours later the rats are euthanized with pentobarbital (100 mg/kg, i.p.) and the airways are lavaged with 5 washes of 5 ml of phosphate buffered saline. The harvested cells are stained (Diffquick) and counted to determine total and differential cell data. In a typical study, macrophages represent 40-70% of the total cells, and polymorphonuclear cells 30-60% of the total cells. Inhibition of neutrophil levels relative to no compound controls is calculated based on the differential counts.
The assay has varying conditions, such as concentration, pretreat time, form of the compound (crystalline, amorphous, salts, micronised), and a wet or dry application of the compound. The data is obtained as % inhibition using a particular concentration and pretreat time.

The subject of data set [2] is TGF-β-induced increases in fibronectin and thrombospondin. The conditions noted are these: cited from earlier work.
The subject of data set [3] is circulating levels of TNFα. Conditions: mice; cited from earlier work.
The conditions of data set [4]: patients with sleep apnea; cited from earlier work.
For data set [5] the following is noted: patients suffering from Psoriasis; seen as early as 4 weeks, persisted for 12 weeks; cited from earlier work.

As to `Cc1ccc(C(=O)Nc2ccc(C)c(-c3nc(NC4CC(C)(C)NC(C)(C)C4)nc4c3CNC(=O)N4c3c(F)cccc3F)c2)cc1F` [23(e), N-(3-{8-(2,6-difluorophenyl)-7-oxo-2-[(2,2,6,6-tetramethyl-4-piperidinyl)amino]-5,6,7,8-tetrahydropyrimido[4,5-d]pyrimidin-4-yl}-4-methylphenyl)-3-fluoro-4-methylbenzamide], the melting point was 220 °C (dec.). In addition, the inhibition of neutrophilia result in data set [1] is “statistically nonsignificant inhibition”. Take `Cc1ccc(NC(=O)c2ccsc2)cc1-c1nc(N2CCC(N)CC2)nc2c1CNC(=O)N2c1c(F)cccc1F` [Example 11, N-{3-[2-(4-amino-1-piperidinyl)-8-(2,6-difluorophenyl)-7-oxo-5,6,7,8-tetrahydropyrimido[4,5-d]pyrimidin-4-yl]-4-methylphenyl}-3-thiophenecarboxamide]: the melting point is 250 to 261 °C (dec.). For the same compound, the inhibition of neutrophilia result in data set [1] was “statistically significant inhibition”. The matching figures for `Cc1ccc(C(=O)NCc2ccccc2)cc1-c1nc(N(C)CCCN(C)C)nc2c1CNC(=O)N2c1c(F)cccc1F` [Example 17, 3-{8-(2,6-Difluorophenyl)-2-[[3-(dimethylamino)propyl](methyl)amino]-7-oxo-5,6,7,8-tetrahydropyrimido[4,5-d]pyrimidin-4-yl}-4-methyl-N-(phenylmethyl)benzamide]: 124 to 127 °C and “statistically nonsignificant inhibition”. In turn, `Cc1ccc(C(=O)Nc2ccc(C)c(-c3nc(N4CCC(N)CC4)nc4c3CNC(=O)N4c3c(F)cccc3F)c2)cc1F` [Example 24, N-{3-[2-(4-amino-1-piperidinyl)-8-(2,6-difluorophenyl)-7-oxo-5,6,7,8-tetrahydropyrimido[4,5-d]pyrimidin-4-yl]-4-methylphenyl}-3-fluoro-4-methylbenzamide] returned a melting point of 240 °C. Besides, the inhibition of neutrophilia result in data set [1] is “statistically nonsignificant inhibition”. For the compound `Cc1ccc(C(=O)Nc2ccc(C)c(-c3nc(OC(C)C)nc4c3CNC(=O)N4c3c(F)cccc3F)c2)cc1F` [Example 26, N-(3-{8-(2,6-difluorophenyl)-2-[(1-methylethyl)oxy]-7-oxo-5,6,7,8-tetrahydropyrimido[4,5-d]pyrimidin-4-yl}-4-methylphenyl)-3-fluoro-4-methylbenzamide], the melting point fell in the range of 253.5 to 255.4 °C. The inhibition of neutrophilia result in data set [1] was “inactive”. Take `Cc1ccc(C(=O)Nc2ccc(C)c(-c3nc(N(C)C)nc4c3CNC(=O)N4c3c(F)cccc3F)c2)cc1F` [Example 28, N-{3-[8-(2,6-difluorophenyl)-2-(dimethylamino)-7-oxo-5,6,7,8-tetrahydropyrimido[4,5-d]pyrimidin-4-yl]-4-methylphenyl}-3-fluoro-4-methylbenzamide]: the melting point was 257.8 to 264.3 °C. Besides, in data set [1], the inhibition of neutrophilia entry is listed as “statistically nonsignificant inhibition”.

As for `Cc1ccc(C(=O)NCc2ccccc2)cc1-c1nc(N2CCN(C)CC2)nc2c1CNC(=O)N2c1c(F)cccc1F` [Example 148, 3-[8-(2,6-difluorophenyl)-2-(4-methyl-1-piperazinyl)-7-oxo-5,6,7,8-tetrahydropyrimido[4,5-d]pyrimidin-4-yl]-4-methyl-N-(phenylmethyl)benzamide], the melting point fell in the range of 164 to 168 °C. Moreover, the inhibition of neutrophilia entry in data set [1] is “statistically nonsignificant inhibition”. As to `Cc1ccc(C(=O)NCc2ccccc2)cc1-c1nc(NCCCN(C)C)nc2c1CNC(=O)N2c1c(F)cccc1F` [Example 151, 3-(8-(2,6-difluorophenyl)-2-{[3-(dimethylamino)propyl]amino}-7-oxo-5,6,7,8-tetrahydropyrimido[4,5-d]pyrimidin-4-yl)-4-methyl-N-(phenylmethyl)benzamide], the melting point was in the range of 141 to 144 °C. Further, in data set [1], the inhibition of neutrophilia result was “statistically nonsignificant inhibition”. In the case of `CNC(=O)c1ccc(C)c(-c2nc(NCCCN(C)C)nc3c2CNC(=O)N3c2c(F)cccc2F)c1` [Example 166, 3-(8-(2,6-difluorophenyl)-2-{[3-(dimethylamino)propyl]amino}-7-oxo-5,6,7,8-tetrahydropyrimido[4,5-d]pyrimidin-4-yl)-N,4-dimethylbenzamide], the melting point was 164 to 167 °C (dec.). Besides, in data set [1], the inhibition of neutrophilia result is listed as “statistically nonsignificant inhibition”. The matching figures for `CCN(CC)CCCNc1nc(-c2cc(C(=O)NC)ccc2C)c2c(n1)N(c1c(F)cccc1F)C(=O)NC2` [Example 172, 3-[2-{[3-(diethylamino)propyl]amino}-8-(2,6-difluorophenyl)-7-oxo-5,6,7,8-tetrahydropyrimido[4,5-d]pyrimidin-4-yl]-N,4-dimethylbenzamide]: 133 to 136 °C and “statistically nonsignificant inhibition”. As to `CNC(=O)c1ccc(C)c(-c2nc(N(C)CCCN(C)C)nc3c2CNC(=O)N3c2c(F)cccc2F)c1` [Example 174, 3-{8-(2,6-difluorophenyl)-2-[[3-(dimethylamino)propyl](methyl)amino]-7-oxo-5,6,7,8-tetrahydropyrimido[4,5-d]pyrimidin-4-yl}-N,4-dimethylbenzamide], the melting point is 163 to 165 °C. In addition, the inhibition of neutrophilia entry in data set [1] is “inactive”.

In the case of `CNC(=O)c1ccc(C)c(-c2nc(N3CCC(N4CCCC4)CC3)nc3c2CNC(=O)N3c2c(F)cccc2F)c1` [Example 175, 3-{8-(2,6-difluorophenyl)-7-oxo-2-[4-(1-pyrrolidinyl)-1-piperidinyl]-5,6,7,8-tetrahydropyrimido[4,5-d]pyrimidin-4-yl}-N,4-dimethylbenzamide], the melting point is 189 to 194 °C (dec.). The inhibition of neutrophilia result in data set [1] is “inactive”. As for `CNC(=O)c1ccc(C)c(-c2nc(N3CCC(N4CCCCC4)CC3)nc3c2CNC(=O)N3c2c(F)cccc2F)c1` [Example 176, 3-[2-(1,4′-bipiperidin-1′-yl)-8-(2,6-difluorophenyl)-7-oxo-5,6,7,8-tetrahydropyrimido[4,5-d]pyrimidin-4-yl]-N,4-dimethylbenzamide], the melting point is 179 to 184 °C (dec.). Moreover, the inhibition of neutrophilia entry in data set [1] was “statistically nonsignificant inhibition”. For `COc1nccc(-c2c(-c3ccc(F)cc3)ncn2C2CCNCC2)n1` [SB-242235], the “TGF-β-induced increases in fibronectin and thrombospondin” value in data set [2] is listed as “inhibited”. With `CC(NC(C)(C)C)C(=O)c1cccc(Cl)c1` (stereo not drawn) [bupropion], the “circulating levels of TNFα” value in data set [3] was “reduce circulating levels of TNFα”. For the compound etanercept, the sleepiness entry in data set [4] is “decreases in sleepiness”. In data set [5], the “symptoms of depression (HAMD and BDI score) and fatigue” value is recorded as “demonstrated efficacy; also recorded: reduce symptoms of depression”.
